Reference: patent publication US8362018B2, “Substituted imidazo[1,2-a]pyrazine compounds useful for the treatment of viral infections” (Biofocus DPI, Ltd., priority 2007, dated 2013)

Legend:
[1] = test system: HCV replicon; test: anti-viral assay (EC50), Table 13; format: cell-based; settings: Hepatitis C virus, anti-viral assays
From the text: The ability of a compound to inhibit HCV replication can be measured in vitro or using animal models using models and assays well known to those of skill in the art (e.g. Pietschmann et al, Clin Liver Dis. 7(1)c23-43, 2003). In vitro techniques for measuring the ability of a compound to inhibit HCV replication involve using HCV or an HCV replicon. Because HCV is difficult to grow in culture, particular in vitro techniques employ an HCV replicon.
An HCV replicon is an RNA molecule able to autonomously replicate in a cultured cell, such as Huh7. The HCV replicon expresses the HCV derived components of the replication machinery and contains cis-elements required for replication in a cultured cell. […]

[2] = cytotoxicity measurement (CC50), Table 13; format: cell-based; settings: human, Huh7 cells

CS(=O)(=O)c1ccc(CNc2nccn3c(-c4ccc(O)cc4)cnc23)cc1 [Compound 32]
EC50 [1]: 1 to 20 µM | CC50 [2]: > 35 µM

Cc1cc(O)ccc1-c1cnc2c(NCc3ccc(S(N)(=O)=O)cc3)nccn12 [Compound 33]
EC50 [1]: 1 to 20 µM | CC50 [2]: > 35 µM

Oc1ccc(-c2cnc3c(NCc4ccc(Cl)cc4)nccn23)cc1 [Compound 34]
EC50 [1]: 1 to 20 µM | CC50 [2]: < 35 µM

Cc1cccc(CNc2nccn3c(-c4ccc(O)cc4)cnc23)c1 [Compound 35]
EC50 [1]: 1 to 20 µM | CC50 [2]: < 35 µM

Cc1ccccc1CNc1nccn2c(-c3ccc(O)cc3)cnc12 [Compound 36]
EC50 [1]: 1 to 20 µM | CC50 [2]: < 35 µM

Oc1ccc(-c2cnc3c(NCc4ccccc4Cl)nccn23)cc1 [Compound 37]
EC50 [1]: 1 to 20 µM | CC50 [2]: > 35 µM

Cc1ccc(CNc2nccn3c(-c4ccc(O)cc4)cnc23)cc1 [Compound 38]
EC50 [1]: 1 to 20 µM | CC50 [2]: > 35 µM

Oc1ccc(-c2cnc3c(NCc4ccc(C(F)(F)F)cc4)nccn23)cc1 [Compound 39]
EC50 [1]: 1 to 20 µM | CC50 [2]: < 35 µM

COc1ccc(CNc2nccn3c(-c4ccc(O)cc4)cnc23)cc1 [Compound 40]
EC50 [1]: 1 to 20 µM | CC50 [2]: > 35 µM

Cc1cc(-c2cnc3c(NCc4ccc(S(N)(=O)=O)cc4)nccn23)cc(C)c1O [Compound 41]
EC50 [1]: 1 to 20 µM | CC50 [2]: < 35 µM

N#Cc1ccc(CNc2nccn3c(-c4ccc(O)cc4)cnc23)cc1 [Compound 42]
EC50 [1]: 1 to 20 µM | CC50 [2]: < 35 µM

COc1ccc(-c2cnc3c(NCCS(N)(=O)=O)nccn23)cc1OC [Compound 43]
EC50 [1]: > 20 µM | CC50 [2]: > 35 µM

COc1ccc(-c2cnc3c(NCc4cccc(Cl)c4)nccn23)cc1 [Compound 44]
EC50 [1]: 1 to 20 µM | CC50 [2]: < 35 µM

NS(=O)(=O)c1ccc(CNc2nccn3c(-c4ccc(CO)s4)cnc23)cc1 [Compound 45]
EC50 [1]: 1 to 20 µM | CC50 [2]: > 35 µM

NS(=O)(=O)c1ccc(CNc2nccn3c(-c4ccc(CO)o4)cnc23)cc1 [Compound 46]
EC50 [1]: 1 to 20 µM | CC50 [2]: > 35 µM

OCc1ccc(CNc2nccn3c(-c4ccc(O)cc4)cnc23)cc1 [Compound 47]
EC50 [1]: 1 to 20 µM | CC50 [2]: < 35 µM

NC(=O)c1ccc(CNc2nccn3c(-c4ccc(O)cc4)cnc23)cc1 [Compound 48]
EC50 [1]: 1 to 20 µM | CC50 [2]: > 35 µM

CNC(=O)c1ccc(CNc2nccn3c(-c4ccc(O)cc4)cnc23)cc1 [Compound 49]
EC50 [1]: 1 to 20 µM | CC50 [2]: < 35 µM

Nc1ccc(-c2cnc3c(NCc4ccc(S(N)(=O)=O)cc4)nccn23)cc1 [Compound 50]
EC50 [1]: 1 to 20 µM | CC50 [2]: > 35 µM

N#Cc1cc(-c2cnc3c(NCc4ccc(S(N)(=O)=O)cc4)nccn23)ccc1O [Compound 51]
EC50 [1]: > 20 µM | CC50 [2]: > 35 µM

O=C(O)c1ccc(CNc2nccn3c(-c4ccc(O)cc4)cnc23)cc1 [Compound 52]
EC50 [1]: > 20 µM | CC50 [2]: > 35 µM

NS(=O)(=O)c1ccc(CNc2nccn3c(-c4ccc(O)c([N+](=O)[O-])c4)cnc23)cc1 [Compound 54]
EC50 [1]: 1 to 20 µM | CC50 [2]: > 35 µM

COc1ccc2cc(-c3cnc4c(NCc5ccc(S(N)(=O)=O)cc5)nccn34)ccc2c1 [Compound 55]
EC50 [1]: 1 to 20 µM | CC50 [2]: < 35 µM

COc1cc(-c2cnc3c(NCc4cccc(S(N)(=O)=O)c4)nccn23)ccc1O [Compound 56]
EC50 [1]: < 1 µM | CC50 [2]: < 35 µM

NS(=O)(=O)c1cccc(CNc2nccn3c(-c4ccc(O)c(F)c4)cnc23)c1 [Compound 57]
EC50 [1]: < 1 µM | CC50 [2]: > 35 µM

Oc1ccc(-c2cnc3c(NCc4cccnc4)nccn23)cc1 [Compound 58]
EC50 [1]: 1 to 20 µM | CC50 [2]: < 35 µM

Oc1ccc(-c2cnc3c(NCc4cccs4)nccn23)cc1 [Compound 59]
EC50 [1]: 1 to 20 µM | CC50 [2]: < 35 µM

COc1cc(CNc2nccn3c(-c4ccc(O)cc4)cnc23)cc(OC)c1OC [Compound 60]
EC50 [1]: 1 to 20 µM | CC50 [2]: < 35 µM

Oc1ccc(-c2cnc3c(NCc4ccc5c(c4)OCO5)nccn23)cc1 [Compound 61]
EC50 [1]: 1 to 20 µM | CC50 [2]: < 35 µM

COc1ccc(-c2cnc3c(NCCc4ccncc4)nccn23)cc1OC [Compound 62]
EC50 [1]: 1 to 20 µM | CC50 [2]: < 35 µM

CN1CCN(c2ccc(-c3cnc4c(Nc5cccc(OC(F)(F)C(F)F)c5)nccn34)cn2)CC1 [Compound 63]
EC50 [1]: 1 to 20 µM | CC50 [2]: < 35 µM

COc1ccc(-c2cnc3c(Nc4ccc(N5CCOCC5)cc4)nccn23)cc1OC [Compound 64]
EC50 [1]: 1 to 20 µM | CC50 [2]: < 35 µM

NS(=O)(=O)c1ccc(CNc2nccn3c(-c4cccc(O)c4)cnc23)cc1 [Compound 65]
EC50 [1]: 1 to 20 µM | CC50 [2]: < 35 µM

COc1ccc(-c2cnc3c(NCc4cccs4)nccn23)cc1OC [Compound 66]
EC50 [1]: 1 to 20 µM | CC50 [2]: < 35 µM

NS(=O)(=O)c1ccc(CNc2nccn3c(-c4cccc(F)c4)cnc23)cc1 [Compound 67]
EC50 [1]: 1 to 20 µM | CC50 [2]: < 35 µM

COc1ccc(-c2cnc3c(NCc4ccco4)nccn23)cc1OC [Compound 68]
EC50 [1]: 1 to 20 µM | CC50 [2]: < 35 µM

CC(C)c1ccc(Nc2nccn3c(-c4ccc(O)cc4)cnc23)cc1 [Compound 69]
EC50 [1]: 1 to 20 µM | CC50 [2]: < 35 µM

CC(C)c1ccc(Nc2nccn3c(-c4cccc(NS(C)(=O)=O)c4)cnc23)cc1 [Compound 70]
EC50 [1]: 1 to 20 µM | CC50 [2]: < 35 µM

CS(=O)(=O)Nc1cccc(-c2cnc3c(NCc4ccc(S(N)(=O)=O)cc4)nccn23)c1 [Compound 71]
EC50 [1]: 1 to 20 µM | CC50 [2]: < 35 µM

CS(=O)(=O)Nc1cccc(-c2cnc3c(NCc4ccc5c(c4)OCO5)nccn23)c1 [Compound 73]
EC50 [1]: 1 to 20 µM | CC50 [2]: < 35 µM

NS(=O)(=O)c1ccc(CNc2nccn3c(-c4ccccc4)cnc23)cc1 [Compound 74]
EC50 [1]: 1 to 20 µM | CC50 [2]: < 35 µM

NS(=O)(=O)c1ccc(CNc2nccn3c(-c4cccc(CO)c4)cnc23)cc1 [Compound 75]
EC50 [1]: 1 to 20 µM | CC50 [2]: < 35 µM

Oc1cccc(-c2cnc3c(NCc4cccnc4)nccn23)c1 [Compound 76]
EC50 [1]: 1 to 20 µM | CC50 [2]: < 35 µM

CS(=O)(=O)Nc1cccc(-c2cnc3c(NCc4cccnc4)nccn23)c1 [Compound 77]
EC50 [1]: 1 to 20 µM | CC50 [2]: < 35 µM

COCCCNc1nccn2c(-c3ccc(OC)c(OC)c3)cnc12 [Compound 78]
EC50 [1]: 1 to 20 µM | CC50 [2]: < 35 µM

OCc1ccc(-c2cnc3c(NCc4ccc(F)cc4)nccn23)cc1 [Compound 79]
EC50 [1]: 1 to 20 µM | CC50 [2]: < 35 µM

Oc1cccc(-c2cnc3c(NCc4cccs4)nccn23)c1 [Compound 80]
EC50 [1]: 1 to 20 µM | CC50 [2]: < 35 µM

OCc1ccc(-c2cnc3c(NCc4ccc5c(c4)OCO5)nccn23)cc1 [Compound 81]
EC50 [1]: 1 to 20 µM | CC50 [2]: < 35 µM

Oc1ccc(Nc2nccn3c(-c4cccc(F)c4)cnc23)cc1 [Compound 82]
EC50 [1]: 1 to 20 µM | CC50 [2]: < 35 µM

COc1ccc(CNc2nccn3c(-c4cccc(NS(C)(=O)=O)c4)cnc23)cc1 [Compound 83]
EC50 [1]: 1 to 20 µM | CC50 [2]: < 35 µM

CC(=O)c1cccc(-c2cnc3c(NCCc4cccnc4)nccn23)c1 [Compound 84]
EC50 [1]: 1 to 20 µM | CC50 [2]: < 35 µM

Oc1cccc(-c2cnc3c(NCCc4cccnc4)nccn23)c1 [Compound 85]
EC50 [1]: 1 to 20 µM | CC50 [2]: < 35 µM

COc1ccccc1-c1cnc2c(NCc3ccc(S(N)(=O)=O)cc3)nccn12 [Compound 86]
EC50 [1]: 1 to 20 µM | CC50 [2]: < 35 µM
